Assay results from patent US20250042925A1, “Improved Compositions and Methods for Targeting Mitochondria in Cancer Cells” (The Medical College of Wisconsin, Inc., priority 2021, published 2025).

Columns and labels:
[1] = system: diabetic patients; details: cited from earlier work
[2] = system: KPC1242, Panc-1, AsPC-1, HCT-116, MDA-MB-231, OVCAR-4, OVCAR-8 cancer cell lines; experiment: Cell growth (IncuCyte confluence) in cancer cell lines; format: cell-based, murine, human; details: increasing concentrations 0.1 μM-10 μM, each of the cancer cells
Excerpt: (§1) Murine pancreatic cancer cells KPC1242 (David Tuveson, Cold Spring Harbor), human pancreatic cancer cells, Panc-1 (ATCC: CRL-1469), human breast cancer cells MDA-MB-231 (ATCC: CRM-HTB-26), and human pancreatic stellate cells HPSC (Rosa F. Hwang, MD Anderson cancer) were all cultured in DMEM (Gibco ThermoFisher Scientific, Waltham, MA, Cat #11965084) containing 10% v/v fetal bovine serum (Omega Scientific, Inc., Tarzana, CA, Cat #FB-12). Human pancreatic cancer cells AsPC-1 (ATCC: CRL-1682), human ovarian cancer cells OVCAR-8 (NIH: CVCL-1629), and human ovarian cancer cells OVCAR-4 (NIH: CVCL-1627) were all cultured in DMEM (Gibco, Cat #22400089) containing 10% v/v fetal bovine serum (Omega Scientific). Human colon cancer cells HCT-116 (ATCC: CCL-247) were cultured in McCoy's 5A Modified Medium (Gibco, Cat #16600082) containing 10% v/v fetal bovine serum (Omega Scientific). Human pancreatic duct epithelial cells HPNE (ATCC: CRL-4023) were cultured in DMEM and 200 mM L-Glutamine and 7.5% w/v NaCO3 further supplemented with 15% v/v fetal bovine serum, M3-Base A (Incell, San Antonio, TX), 1M D-Glucose (Gibco Cat #J60067.EQE), 100 μg/mL human EGF (Gibco Cat #PHG0313) and 10 mg/mL puromycin (ThermoFisher, Cat #A1113802).

[3] = system: HPNE and HPSC non-transformed cells; experiment: Cell growth (confluence) of normal non-transformed cells; format: cell-based, human
Method: To test the off-target effects of the refined MMe analogs on normal non-transformed cells, the growth of HPNE cells (FIGS. 11A, 11D, and 11G), used as a surrogate for normal pancreatic ductal epithelium, or normal stromal HPSC cells (FIGS. 11B, 11E, and 11H) were measured in increasing concentrations of MMe, pCF3-MMe, or mCF3-MMe and compared to the vehicle control.
as §1

[4] = system: Panc-1 human pancreatic cancer cells; experiment: Cell growth (IncuCyte confluence) in Panc-1 cells
Excerpt: Values are mean±SD, n=4, each experiment completed in technical quadruplicate.
To investigate tumor cell selectivity, human pancreatic nestin-expressing cells (HPNE) were used as a surrogate for normal epithelial cells, and human pancreatic stellate cells (HPSC) were studied as a non-transformed stromal cell type. Cells were exposed to escalating concentrations of MMe, pCF3-MMe, mCF3-MMe, and pMeO-MMe (FIGS. 2A-2D) and percent confluency measured as a surrogate for daily proliferation.
Cells were plated to standard 96-well tissue culture plates at 4,000 cells/well. Mitochondria-targeted compounds were diluted in full serum medium and added to wells. Cell confluence was measured using an IncuCyte S3 every 2 hours at 10× magnification. […] Image analyses were conducted using the IncuCyte S3 imaging software system.

For `CN(C)C(=N)N=C(N)N` [Metformin], the tolerated daily doses [1] is given as 2-3 grams.
For `N=C(N)NC(=N)NCCCCCCCCCC[P+](c1cccc(C(F)(F)F)c1)(c1cccc(C(F)(F)F)c1)c1cccc(C(F)(F)F)c1.[Br-]` [mCF3-MMe, (10-(3-carbamimidoylguanidino)decyl)tris(3-(trifluoromethyl)phenyl)phosphonium bromide], the cell confluency [2] was “decreased in a concentration-dependent manner”, the “reduction in toxicity to normal cells compared to MMe” value [3] was ~10 fold and the “sensitivity of normal non-transformed cells compared to cancer cells” value ([3]; HPNE, HPSC versus cancer cells) was “more than a log less sensitive”.
For `COc1ccc([P+](CCCCCCCCCCNC(=N)NC(=N)N)(c2ccc(OC)cc2)c2ccc(OC)cc2)cc1` [pMeO-MMe], the confluence ([4]; human pancreatic cancer cells) was “concentration-dependent decrease in confluence” and the “efficacy in pancreas cancer cells” value ([4]; in contrast to the fluorinated compound) was “significantly lower efficacy”.
